Results from patent US20220409562A1, “Treatment or Prevention of Ischaemic Stroke Reperfusion Injury” (Cambridge Enterprise Limited, priority 2019, published 2022).
Entries after “also recorded” stand apart in the source; their conditions may differ.

Assays:
[1] = tested on: transient middle cerebral artery occlusion (MCAO) in C57Bl6J mice; assay: Transient middle cerebral artery occlusion (MCAO) model, infarct volume and cerebral blood flow; assay type: in vivo; details: given i.v. for 20 minutes starting just prior to reperfusion; 45 min ischemia, 2 h reperfusion; vs saline/vehicle control
Source text: Male C57Bl6J mice, 6-8 weeks old, were anesthetized with 3% isoflurane and anaesthesia was maintained on 1.5-2% isoflurane. A Doppler flowmetry probe (Perimed, Sweden) was attached to the skull to continuously monitor the cerebral blood flow. Left common carotid artery (CCA) and left external carotid artery were exposed and permanently ligated. Left […] was clamped temporarily. Next, an incision was made on CCA and a filament with a silicon tip (0.22 mm in diameter, 2-3 mm in length, Doccol, USA) was inserted and guided forward into internal carotid artery until it reached middle cerebral artery (MCA). The occlusion of MCA was confirmed by seeing at least 70% drop in cerebral blood flow. […]
At the end of reperfusion, mice were sacrificed by cervical dislocation; brain was collected and sliced at 2 mm thicknesses and stained with 2% triphenyltetrazolium chloride in saline at 37 C for 10-15 min. […] The healthy tissue area (red-stained) in both hemispheres was measured using ImageJ. The infarct volume % was calculated by first calculating the volume of healthy tissue in each hemisphere (Σarea of each slice×thickness of slice), then by the formula: ((volume of healthy tissue in uninjured hemisphere −volume of healthy tissue in injured hemisphere) ÷volume of healthy tissue in uninjured hemisphere)×100. […]

[2] = tested on: ischemia; details: administered prior to and throughout ischemia; cited from earlier work
[3] = tested on: C2Cl2 mouse myoblast cells; assay: Malonate uptake in vitro (LC-MS of cell extracts); assay type: in vitro ADME; details: for malonate concentration within the cell: allowing for a cell volume of 260 mg protein/ml
Description: We first explored whether malonate could be taken up by cells in culture. C2Cl2 mouse myoblast cells were plated at 300,000 cells/well and adhered overnight. The next day, cells were treated with either DSM (a—0.25 mM; b—0.25, 1 or 5 mM) or untreated for 0 to 240 min before cooling plates on ice and rapidly washing 4 times with ice-cold PBS and placed on dry ice. Cells were extracted for mass spectrometry with 500 μl extraction buffer (50% methanol, 30% acetonitrile and 20% water) with 1 nmol ^13C-malonate internal standard centrifuged to remove insoluble debris.

[4] = Malonate uptake in vivo (tissue levels after tail vein bolus, LC-MS/MS); set-up: species or system C57/BL6 mice; details: 160 mg/kg tail vein bolus, 5 min after injection, normoxic mouse
Description: To see if this uptake also occurred in vivo, we injected disodium malonate into a normoxic mouse by a bolus in the tail vein and measured the malonate levels in tissues 5 min later. C57/BL6 mice were tail vein injected with DSM (160 mg/kg) before cervical dislocation 5 min after the injection, tissues harvested and clamp frozen in liquid nitrogen. For tissue analysis, tissues were weighed and extracted in 25 μl/mg extraction buffer containing internal standard and homogenised in a Precellys 24 homogeniser. Homogenates were centrifuged to remove insoluble debris. Extracts were analysed by LC-MS/MS and the levels of malonate assessed by interpolation of a malonate standard curve.

In the case of `COC(=O)CC(=O)OC` [DMM, dimethyl malonate], the “necrotic brain infarct volume” value [1] is given as “no significant difference; also recorded: not effective” and the protective effect [2] is given as “protective”.
In the case of `O=C([O-])CC(=O)[O-].[Na+].[Na+]` [DSM, disodium malonate], the intracellular malonate levels ([3]; 5 mM DSM, after 5 min (FIG. 4b)) is reported as roughly 2 nmol/mg protein, the “malonate uptake into cells” value ([3]; 0.25, 1 or 5 mM, 0 to 240 min (FIG. 4b)) is reported as “both dose and time-dependent” and the “malonate concentration within the cell” value ([3]; after 5 min incubated with 250 μM) is reported as “about 50”. For the same compound, the “malonate concentration within the cell” value ([3]; after 5 min incubated with 5 mM) was roughly 500, the intracellular malonate levels ([3]; incubated with 250 μM disodium malonate (FIG. 4a)) was 0.2-0.4 nmol/mg protein and the “necrotic brain infarct volume” value [1] was “decreased”. For the same compound, the “tissue levels of malonate, brain” value [4] was “uptake”, the “tissue levels of malonate, heart” value [4] was “significant amounts” and the “tissue levels of malonate, kidney” value [4] was “particularly high”. For the same compound, the “tissue levels of malonate, liver” value [4] was “significant amounts”.
